Drawing on article PMC12040169 (PLOS Biology, 2025), this text covers viability for 72 compounds.

The data set in a line: in vitro. The settings on record: human, hela cells, % viability.
As for `CN1C(=O)CC2(C1=O)C(=O)N(CCN1C(=O)c3ccccc3C1=O)c1ccc(F)cc12` (stereo not drawn) [CBK075451], the viability at 28.5 h, 10 µM stood at 89.5%.
For `Cc1ccc(-c2nnc(CN3C(=O)C4(CC(=O)N(C)C4=O)c4cc(F)ccc43)o2)cc1` (stereo not drawn) [CBK075453] the value was 110%; for `CN1C(=O)C2(CC(=O)N(CCC3CCCCC3)C2=O)c2ccccc21` (stereo not drawn) [CBK075461], 109%.
For `C=CCN1C(=O)CC2(C1=O)C(=O)N(C)c1ccccc12` (stereo not drawn) [CBK075472] the value was 99%; for `CCN1C(=O)CC2(C1=O)C(=O)N(CCCOc1ccccc1OC)c1ccccc12` (stereo not drawn) [CBK075498], 109%.
Turning to `CCN1C(=O)CC2(C1=O)C(=O)N(Cc1cccc(CN3C(=O)CCC3=O)c1)c1ccccc12` (stereo not drawn) [CBK075508], the viability at 28.5 h, 10 µM is 104%.
`CN1C(=O)CC2(C1=O)C(=O)N(CCCOc1ccc(F)cc1)c1ccccc12` (stereo not drawn) [CBK075513]: the viability at 28.5 h, 10 µM came out at 108%.
For `CCN1C(=O)CC2(C1=O)C(=O)N(CCCOc1ccccc1)c1ccc(OC)cc12` (stereo not drawn) [CBK075585] the value was 98%; for `CCN1C(=O)CC2(C1=O)C(=O)N(Cc1nnc(-c3ccc(C)cc3)o1)c1ccc(OC)cc12` (stereo not drawn) [CBK075586], 90.4%; for `CCN1C(=O)CC2(C1=O)C(=O)N(CCCOc1ccc(Cl)cc1)c1ccc(C)cc12` (stereo not drawn) [CBK075648], 109%.
For `C=CCN1C(=O)CC2(C1=O)C(=O)N(CCCn1c(=O)c3c(ncn3C)n(C)c1=O)c1ccc(OC)cc12` (stereo not drawn) [CBK075701] the value was 93.6%.
As for `O=C1CCC(=O)N1CCN1C(=O)C2(CC(=O)N(Cc3ccccc3)C2=O)c2ccccc21` (stereo not drawn) [CBK075705], the figure is 101%.
For the compound `Cn1cnc2c1c(=O)n(CCCN1C(=O)C3(CC(=O)N(Cc4ccccc4)C3=O)c3cc(F)ccc31)c(=O)n2C` (stereo not drawn) [CBK075717], the viability at 28.5 h, 10 µM worked out at 76%.
Take `COc1ccc2c(c1)C1(CC(=O)N(CC(=O)N(C)C)C1=O)C(=O)N2CCCN(C)S(C)(=O)=O` (stereo not drawn) [CBK075889]: the viability at 28.5 h, 10 µM amounted to 118%.
As for `COc1ccc2c(c1)C1(CC(=O)N(CC(=O)N(C)C)C1=O)C(=O)N2CC(=O)c1ccccc1` (stereo not drawn) [CBK075913], the figure is 96.9%.
As for `COc1ccc2c(c1)C1(CC(=O)N(CC(=O)N(C)C)C1=O)C(=O)N2Cc1ccc2ccccc2n1` (stereo not drawn) [CBK075923], the figure is 93.7%.
As for `COc1cc(OC)nc(CN2C(=O)C3(CC(=O)N(CCCN4C(=O)c5ccccc5C4=O)C3=O)c3cc(C)ccc32)n1` (stereo not drawn) [CBK075992], the figure is 91.5%; as for `COc1cc(OC)nc(CN2C(=O)CC3(C2=O)C(=O)N(CCCN(C)C(=O)c2ccco2)c2ccc(F)cc23)n1` (stereo not drawn) [CBK076006], 85.6%; as for `COc1cccc(CN2C(=O)CC3(C2=O)C(=O)N(Cc2ccc4ccccc4n2)c2ccccc23)c1` (stereo not drawn) [CBK076016], 96.2%.
As for `O=C1CCC(=O)N1CCN1C(=O)C2(CC(=O)N(CCC(F)(F)F)C2=O)c2ccccc21` (stereo not drawn) [CBK076031], the viability at 28.5 h, 10 µM was found to be 105%.
As for `COc1ccc2c(c1)C1(CC(=O)N(CC(=O)N(C)OC)C1=O)C(=O)N2CCCCOc1ccccc1` (stereo not drawn) [CBK076032], the figure is 92.6%; as for `COc1ccc2c(c1)C1(CC(=O)N(Cc3ccccc3)C1=O)C(=O)N2CC(=O)O` (stereo not drawn) [CBK076108], 92.5%.
Take `CN1CCN(C(=O)c2ccc(-c3ccc4c(c3)OCO4)nc2NCc2cccnc2)CC1` [CBK076110]: the viability at 28.5 h, 10 µM came out at 90.7%.
For `O=C(NCCN1CCOCC1)c1ccc(-c2ccco2)nc1NCc1cccnc1` [CBK076112] the value was 101%; for `Cc1ccccc1-c1ccc(C(=O)NCCc2ccc(S(N)(=O)=O)cc2)c(NCc2cccnc2)n1` [CBK076116], 98.4%.
As to `CN(C)C(=O)CN1C(=O)CC2(C1=O)C(=O)N(CC(=O)O)c1ccc(F)cc12` (stereo not drawn) [CBK076119], the viability at 28.5 h, 10 µM came to 101%.
For `Cc1ccccc1-c1ccc(C(=O)N2CCN(C)CC2)c(NCc2cccnc2)n1` [CBK076125] the value was 93.2%; for `Cc1ccccc1-c1ccc(C(=O)NC2CCCCC2)c(NCc2cccnc2)n1` [CBK076159], 90.5%.
As for `CN(C)CCN(C)C(=O)c1ccc(-c2cc3ccccc3o2)nc1NCc1cccnc1` [CBK076160], the figure is 90.8%; as for `COCCOCN1C(=O)CC2(C1=O)C(=O)N(CC(=O)O)c1ccc(F)cc12` (stereo not drawn) [CBK076163], 90.5%.
For `Cc1ccccc1-c1ccc(C(=O)Nc2ccc3c(c2)OCO3)c(N2CCN(C(=O)c3ccco3)CC2)n1` [CBK076196] the value was 101%; for `CS(=O)(=O)c1cccc(-c2cnc(NCCOc3ccccc3)c(C(=O)NCCc3ccccc3)c2)c1` [CBK076201], 96.5%; for `O=C(NCCN1CCOCC1)c1cc(Br)cnc1N1CCOCC1` [CBK076202], 104%.
As for `COc1ccc(OCCNC(=O)c2ccc(-c3ccccc3C)nc2N2CCN(C(=O)c3ccco3)CC2)cc1` [CBK076207], the viability at 28.5 h, 10 µM worked out at 85.6%.
As for `CCN1CCCC1CNC(=O)c1cc(Br)cnc1N1CCOCC1` (stereo not drawn) [CBK076213], the figure is 87.1%; as for `O=C(NCCc1c[nH]c2ccccc12)c1cc(Br)cnc1N1CCOCC1` [CBK076224], 91.7%.
For `NS(=O)(=O)c1ccc(CCNC(=O)c2cc(Br)cnc2N2CCOCC2)cc1` [CBK076225] the value was 85.1%; for `CC(=O)NCCNC(=O)c1cc(Br)cnc1NCCOc1ccccc1` [CBK076232], 103%.
As for `O=C(NCc1ccc(F)cc1)c1cc(Br)cnc1N1CCOCC1` [CBK076246], the figure is 89.1%; as for `O=C(NCc1ccco1)c1cc(Br)cnc1N1CCOCC1` [CBK076268], 94.6%; as for `COc1ccc(-c2cnc(NCC3CC3)c(C(=O)NCc3ccco3)c2)cc1` [CBK076283], 96.3%.
For the compound `COCCNC(=O)c1cc(-c2cccc(N(C)C)c2)cnc1NCC1CC1` [CBK076288], the viability at 28.5 h, 10 µM came to 93.9%.
On to `CNC(=O)c1cccc(NC(=O)c2cc(-c3cccnc3)cnc2NCc2ccc3c(c2)OCO3)c1` [CBK076291], for which the viability at 28.5 h, 10 µM worked out at 89.4%.
As for `Cc1ccc(C(=O)NCCN2CCOCC2)c(N2CCN(C(=O)c3ccco3)CC2)n1` [CBK076312], the figure is 101%.
As for `COc1ccc(-c2cnc(NCC3CC3)c(C(=O)N3CCN(C)CC3)c2)cc1` [CBK076327], the figure is 96.6%.
In the case of `COc1ccc(-c2cnc(NCCOc3ccccc3)c(C(=O)NCC3COc4ccccc4O3)c2)cc1` (stereo not drawn) [CBK076332], the viability at 28.5 h, 10 µM is 97.2%.
Consider `CN(C)C(=O)c1cc(-c2cccc(N(C)C)c2)cnc1NCC1CC1` [CBK076333], for which the viability at 28.5 h, 10 µM turned out to be 85.1%.
As for `Cc1ccc(C(=O)NCCc2ccc(S(N)(=O)=O)cc2)c(N2CCN(C(=O)c3ccco3)CC2)n1` [CBK076345], the figure is 89%; as for `COc1ccc(-c2cnc(NCC3CC3)c(C(=O)NCCc3c[nH]c4ccccc34)c2)cc1` [CBK076349], 96.4%; as for `CC(=O)NCCNC(=O)c1cc(-c2cccc(S(C)(=O)=O)c2)cnc1NCC1CC1` [CBK076351], 93.9%.
Consider `Cc1ccc(C(=O)NCC2COc3ccccc3O2)c(N2CCN(C(=O)c3ccco3)CC2)n1` (stereo not drawn) [CBK076356], for which the viability at 28.5 h, 10 µM was 93.9%.
Turning to `CS(=O)(=O)c1cccc(-c2cnc(NCC3CC3)c(C(=O)Nc3ccc4c(c3)OCO4)c2)c1` [CBK076362], the viability at 28.5 h, 10 µM was 95.2%.
`Cc1ccc(C(=O)NNCc2ccccc2)c(NCc2cccnc2)n1` [CBK076369]: the viability at 28.5 h, 10 µM was determined as 88.6%.
Consider `Cc1ccc(C(=O)NCCN2CCOCC2)c(NCCCn2ccnc2)n1` [CBK076371], for which the viability at 28.5 h, 10 µM was found to be 115%.
Consider `Cc1ccc(C(=O)Nc2ccc3c(c2)OCO3)c(N2CCOCC2)n1` [CBK076377], for which the viability at 28.5 h, 10 µM came out at 92.9%.
As for `CN(C)C(=O)c1cc(Br)cnc1NCCCn1ccnc1` [CBK076378], the figure is 98%.
In the case of `COc1ccc(S(=O)(=O)NCCNC(=O)c2cc(-c3cccnc3)cnc2NCc2ccc3c(c2)OCO3)cc1` [CBK076379], the viability at 28.5 h, 10 µM was determined as 101%.
As for `CCN1CCCC1CNC(=O)c1ccc(C)nc1NCCCn1ccnc1` (stereo not drawn) [CBK076382], the figure is 90.7%.
For `Cc1ccc(C(=O)NCc2ccco2)c(NCc2cccnc2)n1` [CBK076383] the value was 102%; for `Cc1ccc(C(=O)NC2CCCCC2)c(N2CCOCC2)n1` [CBK076388], 96.5%.
As for `C=C(C)CNC(=O)c1ccc(C)nc1N1CCN(C(=O)c2ccco2)CC1` [CBK076401], the viability at 28.5 h, 10 µM is 94.8%.
For `O=C(NCc1ccc(F)cc1)c1cc(Br)cnc1NCc1cccnc1` [CBK076405] the value was 104%; for `Cc1ccc(C(=O)NCc2ccco2)c(N2CCOCC2)n1` [CBK076410], 89.9%; for `COc1ccc(S(=O)(=O)NCCNC(=O)c2ccc(-c3cccc(Cl)c3Cl)nc2NCc2cccnc2)cc1` [CBK076436], 116%.
With `COc1ccc(-c2cnc(NCC3CC3)c(C(=O)NCc3ccccc3SC)c2)cc1` [CBK076437], the viability at 28.5 h, 10 µM stood at 110%.
As for `O=C(NC1CCCCC1)c1cc(Br)cnc1NCc1cccnc1` [CBK076439], the figure is 91%.
Turning to `Cc1ccc(C(=O)NCc2cccnc2)c(N2CCN(C(=O)c3ccco3)CC2)n1` [CBK076444], the viability at 28.5 h, 10 µM was found to be 83.9%.
For `COc1ccc(OCCNC(=O)c2cc(Br)cnc2N(C)C(C)=O)cc1` [CBK076467] the value was 104%; for `CS(=O)(=O)Nc1ncc(-c2ccco2)cc1C(=O)NCc1nc2ccccc2[nH]1` [CBK076468], 103%.
With `CN(C)C(=O)c1cc(-c2ccccc2)cnc1N(C)S(C)(=O)=O` [CBK076473], the viability at 28.5 h, 10 µM is 105%.
For `COc1ccc(S(=O)(=O)NCCNC(=O)c2cc(Br)cnc2N(C)S(C)(=O)=O)cc1` [CBK076477] the value was 110%; for `CS(=O)(=O)Nc1ncc(-c2ccco2)cc1C(=O)NCc1ccc(F)cc1` [CBK076479], 112%.
